{
  "source": "paper PMC5218480",
  "about": "(PLoS ONE, 2017)",
  "test_system": "MV-4-11 cells",
  "assay": "Gene expression microarray analysis (Affymetrix PrimeView) and GSEA",
  "format": "cell-based, human",
  "set-up": "RFU PODN (11730768_x_at) / Fold change /veh PODN (11730768_x_at) / RFU LINC00158 (11744669_a_at) / Fold change /veh LINC00158 (11744669_a_at) / RFU DUSP10 (11751237_a_at) / Fold change /veh DUSP10 (11751237_a_at) / RFU ID3 (11757404_x_at) / Fold change /veh ID3 (11757404_x_at) / RFU PLEKHG5 (11737974_s_at) / Fold change /veh PLEKHG5 (11737974_s_at) / RFU LRRC4B (11730491_at) / Fold change /veh LRRC4B (11730491_at) / RFU GIMAP4 (11747438_a_at) / Fold change /veh GIMAP4 (11747438_a_at) / RFU KRT8 (11758183_x_at) / Fold change /veh KRT8 (11758183_x_at) / RFU CNN1 (11734310_a_at) / Fold change /veh CNN1 (11734310_a_at) / RFU VPS37D (11726825_at) / Fold change /veh VPS37D (11726825_at) / RFU C10orf10 (11716522_x_at) / Fold change /veh C10orf10 (11716522_x_at) / RFU KIR2DL2 /// KIR2DL4 /// KIR2DL5A /// KIR2DL5B /// KIR2DS1 /// KIR2DS2 /// KIR2DS3 /// KIR2DS4 /// KIR3DL3 /// KIR3DL3 /// KIR3DS1 (11738374_at) / Fold change /veh KIR2DL2 /// KIR2DL4 /// KIR2DL5A /// KIR2DL5B /// KIR2DS1 /// KIR2DS2 /// KIR2DS3 /// KIR2DS4 /// KIR3DL3 /// KIR3DL3 /// KIR3DS1 (11738374_at) / RFU C1QL1 (11718748_at) / Fold change /veh C1QL1 (11718748_at) / RFU TMPRSS4 (11747572_a_at) / Fold change /veh TMPRSS4 (11747572_a_at) / RFU HAMP (11756126_x_at) / Fold change /veh HAMP (11756126_x_at) / RFU RNFT2 (11725882_a_at) / Fold change /veh RNFT2 (11725882_a_at) / RFU NR4A2 (11747474_a_at) / Fold change /veh NR4A2 (11747474_a_at) / RFU ABCC12 (11746883_a_at) / Fold change /veh ABCC12 (11746883_a_at) / RFU TMEM136 (11760407_x_at) / Fold change /veh TMEM136 (11760407_x_at) / RFU CLDN22 /// WWC2 (11732394_at) / Fold change /veh CLDN22 /// WWC2 (11732394_at) / RFU HLA-DPB1 (11760878_x_at) / Fold change /veh HLA-DPB1 (11760878_x_at) / RFU SPINT1 (11716480_a_at) / Fold change /veh SPINT1 (11716480_a_at) / RFU GAP43 (11754022_s_at) / Fold change /veh GAP43 (11754022_s_at) / RFU A4GNT (11735810_at) / Fold change /veh A4GNT (11735810_at) / RFU PRB3 (11715151_x_at) / Fold change /veh PRB3 (11715151_x_at) / RFU TUBB4B (11761932_at) / Fold change /veh TUBB4B (11761932_at) / RFU CAPN14 (11732068_a_at) / Fold change /veh CAPN14 (11732068_a_at) / RFU TMCC2 (11721928_a_at) / Fold change /veh TMCC2 (11721928_a_at) / RFU IRGQ (11745062_a_at) / Fold change /veh IRGQ (11745062_a_at) / RFU FAM174B (11720279_a_at) / Fold change /veh FAM174B (11720279_a_at) / RFU TMPRSS4 (11748680_a_at) / Fold change /veh TMPRSS4 (11748680_a_at) / RFU FAM212B (11763350_a_at) / Fold change /veh FAM212B (11763350_a_at) / RFU PLEKHG5 (11743358_a_at) / Fold change /veh PLEKHG5 (11743358_a_at) / RFU ZSCAN30 (11745921_a_at) / Fold change /veh ZSCAN30 (11745921_a_at) / RFU CMKLR1 (11741424_a_at) / Fold change /veh CMKLR1 (11741424_a_at) / RFU LOC101060620 /// MAPK8IP1 (11723275_at) / Fold change /veh LOC101060620 /// MAPK8IP1 (11723275_at) / RFU SPTSSB (11747773_x_at) / Fold change /veh SPTSSB (11747773_x_at) / RFU PRSS12 (11739890_at) / Fold change /veh PRSS12 (11739890_at) / RFU BIN1 (11741810_x_at) / Fold change /veh BIN1 (11741810_x_at) / RFU WNT11 (11732464_a_at) / Fold change /veh WNT11 (11732464_a_at) / RFU C10orf10 (11716521_a_at) / Fold change /veh C10orf10 (11716521_a_at) / RFU C5orf56 (11738089_at) / Fold change /veh C5orf56 (11738089_at) / RFU CYB561 (11721691_x_at) / Fold change /veh CYB561 (11721691_x_at) / RFU ANKRD19P (11752326_a_at) / Fold change /veh ANKRD19P (11752326_a_at) / RFU OR2T12 /// OR2T33 /// OR2T8 (11738714_s_at) / Fold change /veh OR2T12 /// OR2T33 /// OR2T8 (11738714_s_at) / RFU VCAN (11748164_a_at) / Fold change /veh VCAN (11748164_a_at) / RFU JSRP1 (11732532_at) / Fold change /veh JSRP1 (11732532_at) / RFU KRTAP10-11 (11738290_x_at) / Fold change /veh KRTAP10-11 (11738290_x_at) / RFU MYO3A (11730013_a_at) / Fold change /veh MYO3A (11730013_a_at) / RFU EBF3 (11725865_a_at) / Fold change /veh EBF3 (11725865_a_at) / RFU CAMK2N1 (11719241_x_at) / Fold change /veh CAMK2N1 (11719241_x_at) / RFU C5orf56 (11738088_a_at) / Fold change /veh C5orf56 (11738088_a_at) / RFU OLFML3 (11715873_a_at) / Fold change /veh OLFML3 (11715873_a_at) / RFU LOC100653217 /// NTM (11731650_a_at) / Fold change /veh LOC100653217 /// NTM (11731650_a_at) / RFU MAPK11 (11762145_a_at) / Fold change /veh MAPK11 (11762145_a_at) / RFU FIZ1 (11724087_x_at) / Fold change /veh FIZ1 (11724087_x_at) / RFU OASL (11726364_x_at) / Fold change /veh OASL (11726364_x_at) / RFU SOX15 (11748057_x_at) / Fold change /veh SOX15 (11748057_x_at) / RFU CD79A (11719716_a_at) / Fold change /veh CD79A (11719716_a_at) / RFU HIST1H1D (11736915_at) / Fold change /veh HIST1H1D (11736915_at) / RFU CASKIN2 (11723855_a_at) / Fold change /veh CASKIN2 (11723855_a_at) / RFU LOC730098 (11760151_x_at) / Fold change /veh LOC730098 (11760151_x_at) / RFU OR4N2 (11742367_at) / Fold change /veh OR4N2 (11742367_at) / RFU PRRT2 (11749266_a_at) / Fold change /veh PRRT2 (11749266_a_at) / RFU SNX32 (11753110_a_at) / Fold change /veh SNX32 (11753110_a_at) / RFU CDHR5 (11726645_a_at) / Fold change /veh CDHR5 (11726645_a_at) / RFU RCAN1 (11760418_a_at) / Fold change /veh RCAN1 (11760418_a_at) / RFU FAM167A (11723789_a_at) / Fold change /veh FAM167A (11723789_a_at) / RFU FAM26E (11764081_at) / Fold change /veh FAM26E (11764081_at) / RFU ISYNA1 (11749810_s_at) / Fold change /veh ISYNA1 (11749810_s_at) / RFU ACY1 (11761880_at) / Fold change /veh ACY1 (11761880_at) / RFU 11764098_at / Fold change /veh 11764098_at / RFU SAMD14 (11745864_x_at) / Fold change /veh SAMD14 (11745864_x_at) / RFU NPB (11741838_a_at) / Fold change /veh NPB (11741838_a_at) / RFU TMPRSS6 (11731388_a_at) / Fold change /veh TMPRSS6 (11731388_a_at) / RFU KRTAP10-2 (11738614_at) / Fold change /veh KRTAP10-2 (11738614_at) / RFU ARHGAP8 /// PRR5-ARHGAP8 (11727945_x_at) / Fold change /veh ARHGAP8 /// PRR5-ARHGAP8 (11727945_x_at) / RFU KRTAP5-7 /// NADSYN1 (11734609_at) / Fold change /veh KRTAP5-7 /// NADSYN1 (11734609_at) / RFU RASL12 (11751679_a_at) / Fold change /veh RASL12 (11751679_a_at) / RFU CDKN2B (11736163_a_at) / Fold change /veh CDKN2B (11736163_a_at) / RFU PRF1 (11729649_at) / Fold change /veh PRF1 (11729649_at) / RFU, ZNF638 /// ZNF638-IT1 / Fold change vs veh, ZNF638 /// ZNF638-IT1 / RFU, PANK3 / Fold change vs veh, PANK3 / RFU, SH3YL1 / Fold change vs veh, SH3YL1 / RFU, ZEB2 / Fold change vs veh, ZEB2 / RFU, NRIP1 / Fold change vs veh, NRIP1 / RFU, PTTG1IP / Fold change vs veh, PTTG1IP / RFU, CAPN2 / Fold change vs veh, CAPN2 / RFU, MED14 / Fold change vs veh, MED14 / RFU, SNORA58 / Fold change vs veh, SNORA58 / RFU, C1orf63 / Fold change vs veh, C1orf63 / RFU, LRRFIP1 / Fold change vs veh, LRRFIP1 / RFU, NDUFAF7 / Fold change vs veh, NDUFAF7 / RFU, SLC12A2 / Fold change vs veh, SLC12A2 / RFU, IBTK / Fold change vs veh, IBTK / RFU, ESF1 / Fold change vs veh, ESF1 / Fold change vs veh, TMEM50B / RFU, TAOK1 / Fold change vs veh, TAOK1 / RFU, ACBD3 / Fold change vs veh, ACBD3 / RFU, TMA16 / Fold change vs veh, TMA16 / RFU, RWDD3 / Fold change vs veh, RWDD3 / RFU, BCAT1 / Fold change vs veh, BCAT1 / RFU, EDEM3 / Fold change vs veh, EDEM3 / RFU, TMEM33 / Fold change vs veh, TMEM33 / RFU, WDR75 / Fold change vs veh, WDR75 / RFU, AHCTF1 / Fold change vs veh, AHCTF1 / RFU, TFRC / Fold change vs veh, TFRC / RFU, ZDHHC17 / Fold change vs veh, ZDHHC17 / RFU, NOM1 / Fold change vs veh, NOM1 / RFU, ARL8B / Fold change vs veh, ARL8B / RFU, ZBTB11 / Fold change vs veh, ZBTB11 / RFU, TAMM41 / Fold change vs veh, TAMM41 / RFU, KIAA1704 /// LOC100996395 / Fold change vs veh, KIAA1704 /// LOC100996395 / RFU, ING1 / Fold change vs veh, ING1 / RFU, TRMT61B / Fold change vs veh, TRMT61B / RFU, FUBP3 / Fold change vs veh, FUBP3 / RFU, TP53 / Fold change vs veh, TP53 / RFU, TNKS2 / Fold change vs veh, TNKS2 / RFU, ZFP14 / Fold change vs veh, ZFP14 / RFU, ACTR2 / Fold change vs veh, ACTR2 / RFU, PPP3R1 / Fold change vs veh, PPP3R1 / RFU, PIK3R1 / Fold change vs veh, PIK3R1 / RFU, HNRNPA1 / Fold change vs veh, HNRNPA1 / RFU, RNF170 / Fold change vs veh, RNF170 / RFU, ZNF28 / Fold change vs veh, ZNF28 / RFU, RNGTT / Fold change vs veh, RNGTT / RFU, OGT / Fold change vs veh, OGT / RFU, BRD1 / Fold change vs veh, BRD1 / RFU, MARS / Fold change vs veh, MARS / RFU, ZNF655 / Fold change vs veh, ZNF655 / RFU, FAHD1 / Fold change vs veh, FAHD1 / RFU, BDP1 / Fold change vs veh, BDP1 / RFU, LRRCC1 / Fold change vs veh, LRRCC1 / RFU, ARID1A / Fold change vs veh, ARID1A / RFU, ZNF146 / Fold change vs veh, ZNF146 / RFU, ZNF330 / Fold change vs veh, ZNF330 / RFU, GPN3 / Fold change vs veh, GPN3 / RFU, C9orf123 / Fold change vs veh, C9orf123 / RFU, N4BP2L2 / Fold change vs veh, N4BP2L2 / RFU, ARFIP1 / Fold change vs veh, ARFIP1 / RFU, FAM179B / Fold change vs veh, FAM179B / RFU, BCL10 / Fold change vs veh, BCL10 / RFU, UHRF1BP1L / Fold change vs veh, UHRF1BP1L / RFU, BET1 / Fold change vs veh, BET1 / RFU, CNOT2 / Fold change vs veh, CNOT2 / RFU, ZNF268 / Fold change vs veh, ZNF268 / Fold change vs veh, ZNF507 / RFU, DGCR2 / Fold change vs veh, DGCR2 / RFU, WDSUB1 / Fold change vs veh, WDSUB1 / Fold change vs veh, HSP90B1 /// MIR3652 / RFU, ADSS / Fold change vs veh, ADSS / RFU, GK / Fold change vs veh, GK / RFU, ZNF148 / Fold change vs veh, ZNF148 / RFU, TAF9 / Fold change vs veh, TAF9 / RFU, SLC1A5 / Fold change vs veh, SLC1A5 / RFU, SLMO2 / Fold change vs veh, SLMO2 / RFU, ABCC4 / Fold change vs veh, ABCC4 / RFU, LOC101060439 /// RAP1B / Fold change vs veh, LOC101060439 /// RAP1B / RFU, RFX7 / Fold change vs veh, RFX7 / RFU, GTPBP10 / Fold change vs veh, GTPBP10 / RFU, CNEP1R1 / Fold change vs veh, CNEP1R1 / RFU, BIVM-ERCC5 /// ERCC5 / Fold change vs veh, BIVM-ERCC5 /// ERCC5 / RFU, ILF3 / Fold change vs veh, ILF3 / RFU 11762660_at / Fold change /veh 11762660_at / RFU VCAN (11757783_s_at) / Fold change /veh VCAN (11757783_s_at) / RFU DDX43 (11728927_at) / Fold change /veh DDX43 (11728927_at) / RFU KRT8 (11758188_x_at) / Fold change /veh KRT8 (11758188_x_at) / RFU NKD1 (11759106_at) / Fold change /veh NKD1 (11759106_at) / RFU SRD5A1 (11742802_a_at) / Fold change /veh SRD5A1 (11742802_a_at) / RFU TPSAB1 /// TPSB2 (11721975_s_at) / Fold change /veh TPSAB1 /// TPSB2 (11721975_s_at) / RFU GSTM3 (11746129_a_at) / Fold change /veh GSTM3 (11746129_a_at) / RFU IL23R (11737362_x_at) / Fold change /veh IL23R (11737362_x_at) / RFU TMEM51 (11727254_a_at) / Fold change /veh TMEM51 (11727254_a_at) / RFU PIWIL2 (11732686_x_at) / Fold change /veh PIWIL2 (11732686_x_at) / RFU ORM1 (11744905_x_at) / Fold change /veh ORM1 (11744905_x_at) / RFU CCDC152 (11743942_at) / Fold change /veh CCDC152 (11743942_at) / RFU ECM1 (11717891_a_at) / Fold change /veh ECM1 (11717891_a_at) / RFU IL23R (11748794_a_at) / Fold change /veh IL23R (11748794_a_at) / RFU TNFAIP8L3 (11732012_x_at) / Fold change /veh TNFAIP8L3 (11732012_x_at) / RFU MBOAT4 (11741988_at) / Fold change /veh MBOAT4 (11741988_at) / RFU 11764193_at / Fold change /veh 11764193_at / RFU TMEM53 (11763286_at) / Fold change /veh TMEM53 (11763286_at) / RFU MAGEB2 (11727129_at) / Fold change /veh MAGEB2 (11727129_at) / RFU TMEM200A (11744735_a_at) / Fold change /veh TMEM200A (11744735_a_at) / RFU CCDC152 (11751479_a_at) / Fold change /veh CCDC152 (11751479_a_at) / RFU FAM211A (11726209_a_at) / Fold change /veh FAM211A (11726209_a_at) / RFU RGS16 (11746705_a_at) / Fold change /veh RGS16 (11746705_a_at) / RFU VCAN (11755009_s_at) / Fold change /veh VCAN (11755009_s_at) / RFU RHOB (11743442_s_at) / Fold change /veh RHOB (11743442_s_at) / RFU RGS16 (11720943_a_at) / Fold change /veh RGS16 (11720943_a_at) / RFU RGS16 (11720944_at) / Fold change /veh RGS16 (11720944_at) / RFU, VPS4B / Fold change vs veh, VPS4B / RFU, CREB1 / Fold change vs veh, CREB1 / RFU, DNAJC13 / Fold change vs veh, DNAJC13 / RFU, GNAQ / Fold change vs veh, GNAQ / RFU, CDK5R1 / Fold change vs veh, CDK5R1 / RFU, ZRANB3 / Fold change vs veh, ZRANB3 / RFU, CUL4A / Fold change vs veh, CUL4A / RFU, CCNY / Fold change vs veh, CCNY / RFU, UFL1 / Fold change vs veh, UFL1 / RFU, COG3 / Fold change vs veh, COG3 / RFU, DIAPH2 / Fold change vs veh, DIAPH2 / RFU, SKA2 / Fold change vs veh, SKA2 / RFU, AFF3 / Fold change vs veh, AFF3 / RFU, LMF1 / Fold change vs veh, LMF1 / RFU, IPO11 / Fold change vs veh, IPO11 / RFU, DFFB / Fold change vs veh, DFFB / RFU, FOXP1 / Fold change vs veh, FOXP1 / RFU, CARD8 / Fold change vs veh, CARD8 / RFU, STRN3 / Fold change vs veh, STRN3 / RFU, ADK / Fold change vs veh, ADK / RFU, RASSF2 / Fold change vs veh, RASSF2 / RFU, WIPF1 / Fold change vs veh, WIPF1 / RFU, LARP1B / Fold change vs veh, LARP1B / RFU, RASA1 / Fold change vs veh, RASA1 / RFU, RB1 / Fold change vs veh, RB1 / RFU, PPFIA1 / Fold change vs veh, PPFIA1 / RFU, MAT2A / Fold change vs veh, MAT2A / RFU, CCT5 / Fold change vs veh, CCT5 / RFU, WDR92 / Fold change vs veh, WDR92 / RFU, CUX1 / Fold change vs veh, CUX1 / RFU, TTC7A / Fold change vs veh, TTC7A / RFU, TMEM135 / Fold change vs veh, TMEM135 / RFU, DEPTOR / Fold change vs veh, DEPTOR / RFU, CPM / Fold change vs veh, CPM / RFU, DNAJB6 / Fold change vs veh, DNAJB6 / RFU, CACNA2D3 / Fold change vs veh, CACNA2D3 / RFU, DTX4 / Fold change vs veh, DTX4 / RFU, TFCP2 / Fold change vs veh, TFCP2 / RFU, GMCL1 /// GMCL1P1 / Fold change vs veh, GMCL1 /// GMCL1P1 / RFU, AEBP2 / Fold change vs veh, AEBP2 / RFU, SNHG1 /// SNORD22 /// SNORD25 /// SNORD26 /// SNORD27 /// SNORD28 /// SNORD29 /// SNORD31 / Fold change vs veh, SNHG1 /// SNORD22 /// SNORD25 /// SNORD26 /// SNORD27 /// SNORD28 /// SNORD29 /// SNORD31 / Fold change (Aza/veh), C12orf56 (ProbeSet 11735607_a_at) / Fold change (ACY-1035/veh), C12orf56 (ProbeSet 11735607_a_at) / Fold change (Aza/veh), FGFR1OP (ProbeSet 11751329_s_at) / Fold change (ACY-1035/veh), FGFR1OP (ProbeSet 11751329_s_at) / Fold change (Aza/veh), VPS36 (ProbeSet 11739960_a_at) / Fold change (ACY-1035/veh), VPS36 (ProbeSet 11739960_a_at) / RFU SYPL1 (11715823_x_at) / Fold change /veh SYPL1 (11715823_x_at) / RFU IGFBP7 (11715501_s_at) / Fold change /veh IGFBP7 (11715501_s_at) / RFU REEP3 (11722064_at) / Fold change /veh REEP3 (11722064_at) / RFU IGLL1 (11728026_x_at) / Fold change /veh IGLL1 (11728026_x_at): dose or concentration left out as unconfirmed",
  "conditions": "ProbeSet 11728676_at; LIST B",
  "data": [
    {"smiles": "Nc1ncn([C@@H]2O[C@H](CO)[C@@H](O)[C@H]2O)c(=O)n1", "note": "[azacitidine]", "values": [
      {"measurement": "Fold change vs veh, MED14", "result": 0.97}
    ]}
  ]
}
